Results taken from patent US20250354999A1, “BIOMARKERS OF LYSOSOMAL STORAGE DISEASE” (Genzyme Corporation, priority 2022, published 2025).
Entries after “also recorded” stand apart in the source; their conditions may differ.

Key:
Assay type in all cases: in vivo, human
CD63 [1] = assay: CD63 level in CSF of type 3 Gaucher disease patients on treatment (Olink Explore; LEAP trial); conditions: GD3 patients, baseline, 26 weeks and 52 weeks on combination treatment of venglustat and imiglucerase
Protocol: For the measurement of protein levels in CSF, the following protocol was employed: Biomarker expression in CSF was measured using four Olink® Explore panels (Cardiometabolic, Inflammation, Neurology, and Oncology), as described, e.g., by Wik et al. (“Proximity Extension Assay in Combination with NextGeneration Sequencing for High-throughput Proteome-wide Analysis, 2021, Mol Cell Proteomics 20, 100168). Briefly, 10 μL of CSF samples and Olink controls were placed into a 384-well Sample Source Plate and then diluted 1:10, 1:100, 1:1000 and 1:100,000 in 384-well Sample Diluent Plates using Mosquito and Dragonfly liquid handlers (both from SPT Labtech). For immunoreaction, these diluted samples were mixed with the Olink® probes (DNA oligo-conjugated antibodies) in 384-well Incubation Plates using the Mosquito handler and incubated at 4° C. for 16-24 hours. The following day, reagent mixtures for the first PCR amplification step (PCR1 step) were added to the immunoreaction mixtures using the Dragonfly handler, and PCR1 reaction for the pre-amplification step was conducted using ProFlex PCR System (Applied Biosciences). […] The four libraries were analyzed by Next Generation Sequencing using NovaSeq 6000 (Illumina). […]

CD63 [2] = assay: CD63 level in plasma of Fabry patients on treatment (Olink profiling; Sanofi-Venglustat Phase II ACT/LTS trial)
Protocol: CD63 was measured by Olink® profiling, as described below, using the Olink® Target96 Neuro-Exploratory panel (Olink Proteomics AB, Uppsala, Sweden) according to the manufacturer's instructions.
Protein detection can be performed using Olink® (Olink Proteomics AB, Uppsala, Sweden) profiling in accordance with the manufacturer's recommended protocols (for exemplary methods, see, e.g., Assarsson et al., PLoS ONE (2014) 9(4):e95192; and Jabbari et al., Journal of Neurology, Neurosurgery & Psychiatry (2019) 90:768-773). The Proximity Extension Assay (PEA) technology used for the Olink® protocol has been well described (Assarsson et al., 2014, supra), and enables 92 analytes per panel to be analysed simultaneously, using 1 μL of each sample. In brief, pairs of oligonucleotide-labelled antibody probes bind to their targeted protein, and if the two probes are brought in close proximity the oligonucleotides will hybridize in a pair-wise manner. The addition of a DNA polymerase leads to a proximity-dependent DNA polymerization event, generating a unique PCR target sequence. The resulting DNA sequence can subsequently be detected and quantified using a microfluidic real-time PCR instrument (Biomark HD, Fluidigm). Data is then quality controlled and normalized using an internal extension control and an inter-plate control, to adjust for intra- and inter-run variation. The final assay read-out is presented in Normalized Protein expression (NPX) values, which is an arbitrary unit on a log 2-scale where a high value corresponds to a higher protein expression. All assay validation data (e.g., detection limits, intra- and inter-assay precision data, etc.), experimental protocols, and data processing are available on the manufacturer's website (www.olink.com).
The ACT/LTS samples were taken from the Sanofi-Venglustat Phase II trial. This trial consisted only of male patients. The Sanofi-Venglustat Phase II trial was a longitudinal study, and patient plasma was collected at 6 set intervals: Baseline (0 weeks), 12 weeks, 26 weeks, 52 weeks, 104.2 weeks, and 156.4 weeks. There are missing timepoints for some patients. During this trial, all patients were treated with venglustat (a substrate reduction therapy-SRT).
Cohort 1 is a collection of plasma samples provided by Dr. Gavin Oudit from the University of Alberta. Briefly, these plasma samples were from a mix of male and female patients with ages ranging from 25 to 68. They were non-longitudinal samples (e.g. 1 sample per patient), and the plasma samples were a mix of treated Fabry patients (enzyme replacement therapy-ERT), untreated Fabry patients, and healthy control subjects.
Cohort 2 is a collection of plasma samples provided by Dr. Michael Mauer from the University of Minnesota. […]

GL3 = GL3 level in plasma of Fabry patients on venglustat (ESI-LC-MS/MS); conditions: Fabry disease patients, venglustat clinical trial over time
Protocol: (§1) Glycosphingolipids (lyso-GL1, GL3, and lyso-GL3) were measured by ESI-LC-MS/MS according to the method described in Murugesan et al., Am J Hematol. (2016) 91(11):1082-1089. In brief, 20 μL aliquots of plasma were added to 1 mL of chloroform:methanol (2:3) in an Eppendorf tube, mixed and then centrifuged. Supernatant was removed and extracted with chloroform (220 μL) and water (520 μL) by mixing and centrifugation. The upper phase was re-extracted with chloroform and added to the lower phase. The combined sample was dried, resuspended in 100 μL methanol:water (9:1) and injected into an LC-MS/MS system for tandem mass spectroscopic analysis. Separation of glycosphingolipids and other matrix components was achieved using UPLC under gradient conditions with two mobile phases: 0.1% formic acid in water; and 0.1% formic acid in acetonitrile. Mass spectrometry (MS) was performed in select ion monitoring mode, typically using the parent (M+H^+) ion transition (e.g. m/z 462.5>282.4 for lyso-GL1). Assays were calibrated using known glycosphingolipid standards (dimethylpsychosine, 13C6-labelled lyso-GL3 (GelbChem), and C17-GL3 (Matreya LLC, cat no. 1523) as internal standards for lyso-GL1, lyso-GL3, and GL3 respectively).
(§2) The ACT/LTS samples were taken from the Sanofi-Venglustat Phase II trial. This trial consisted only of male patients. […]

lyso-GL3 = lyso-GL3 level in plasma of Fabry patients on venglustat (ESI-LC-MS/MS)
Protocol: as §1, §2

[3] = Fabry disease patients vs healthy controls, during the trial period

CC(C)(NC(=O)O[C@@H]1CN2CCC1CC2)c1csc(-c2ccc(F)cc2)n1 [venglustat, (3S)-1-azabicyclo[2.2.2]octan-3-yl N-{2-[2-(4-fluorophenyl)-1,3-thiazol-4-yl]propan-2-yl}carbamate]
change of CD63 levels in CSF on treatment (CD63 [1]): consistently led to a decrease in CD63 levels | return of CD63 to control levels (CD63 [2]; [3]): do not return to control levels during the trial period | response of CD63 to treatment (CD63 [2]; Fabry disease patients, baseline to 156.4 weeks on treatment): decrease over a period of 30 months towards a healthy level; also recorded: show a response to treatment | time at which CD63 response to treatment is observed (CD63 [2]; Fabry disease patients, venglustat treatment): 12 weeks | first significant decrease in CD63 (estimated marginal mean, log 2) (CD63 [2]; Fabry disease patients, venglustat treatment, baseline to 156 weeks): ≤ 26 week | response of GL3 to treatment (GL3): show a response to treatment | return of lyso-GL3 to control levels (lyso-GL3; [3]): do not return to control levels during the trial period | response of lyso-GL3 to treatment (lyso-GL3; Fabry disease patients, venglustat clinical trial over time): show a response to treatment
